Assays:
[1] = Solubility of BCP3 in water and base; type: physicochemical
[2] = tested on: L929 cells; assay: Determination of minimal BCP3 cytotoxic concentration (MTS assay); type: cell-based
Description: BCP3 was sterilized via incubation in 80% ethanol in a sterile glass vial for 1 h prior to being vacuum dried at 120° C. for 5 h (0.2 mbar). Subsequently BCP3 was suspended in complete minimum essential medium (MEM, containing 10% (v/v) FBS and 1% (v/v) non-essential amino acids) to afford a 5 mg/mL suspension. The stock suspension was then twice and ten times diluted to finally obtain concentrations ranging from 8×10^−4-5 mg/mL. Aliquots of 20 μL of each concentration were then added in quadruplicate to wells previously seeded with L929 cells containing 80 μL of complete MEM (18,000 cells per well, 16 h) in a 96 well plate format for final well concentrations of 1.6×10^−4-1 mg/mL. Additional controls were added to wells containing pre-seeded cells; medium alone, 5%, and 10% (v/v) dimethylsulfoxide (DMSO, Sigma) in medium. The plate was subsequently incubated for 21 h (37° C., 5% CO2). An 3-(4,5-dimethylthiazol-2-yl)-5(3-carboxymethoxyphenyl)-2-(4-sulfophenyl)-2H-tetrazolium (MTS) assay was then utilized to determine cell viability based on metabolic activity of cells. Stock solutions of 4 mM MTS (Promega) in PBS and 3 mM of phenazine methosulfate (PMS, Sigma) in PBS were used to make up a mixture of MTS and PMS reagent. A working assay reagent solution was made up by addition of 2 mL of MTS and 100 μL of PMS stock solutions per 10 mL of complete medium. Media was removed from the sample and control wells and washed with 120 μL of fresh medium; subsequently 100 μL of the assay reagent solution was added to wells then incubated for 3 h at 37° C., 5% CO2. For colorimetric analysis, plates were read in a BioTek plate reader at wavelengths 490 nm and 655 nm. The difference in readings at the two wavelengths was used to calculate cell attachment compared to controls.

[3] = tested on: methicillin resistant-S. aureus (MRSA) (ATCC 43300); assay: Determination of the minimum inhibitory concentration (MRSA); type: cell-based; conditions: Staphylococcus aureus, 24 h at 37° C., lowest concentration at which greater than 90% inhibition of bacterial growth was observed
Description: (§1) Three bacterial strains—two Gram-positive bacteria: Staphylococcus aureus (ATCC 29213) (MSSA) and methicillin resistant-S. aureus (MRSA) (ATCC 43300); and a Gram-negative Pseudomonas aeruginosa (ATCC 27853) were used in this study. Bacterial stocks (stored at −80° C. in nutrient broth with 15% glycerol) were streaked onto nutrient agar (Oxoid, Basingstoke, UK) plates for use as the working stock. From the stock an overnight bacterial culture grown in nutrient broth was diluted 1:100 into specific growth media, including tryptic soya broth for S. aureus and Luria-Bertani broth for P. aeruginosa. The final concentration of bacteria was made up to 1×10^5 cfu/mL for the inhibition assays. BCP3 was suspended in respective bacterial media to afford 5 mg/mL suspension. The stock suspension was then twice and ten times diluted to finally obtain concentrations ranging from 8×10^−4-5 mg/mL. Aliquots of 20 μL of each concentration were then added in quadruplicate to wells containing 80 μL of 1×10^5 cfu/mL bacterial solutions in a 96 well plate format for final well concentrations of 1.6×10^−4-1 mg/mL of BCP3. […] After 24 h, 100 μL from each well was transferred into a TOPS 96 well plate (Nunc) and the optical density was measured at 600 nm using a BioTek plate reader. The inhibition of bacterial growth was determined relative to the control (%). […]

[4] = tested on: Staphylococcus aureus (ATCC 29213) (MSSA); assay: Determination of the minimum inhibitory concentration (MSSA); type: cell-based; conditions: 24 h at 37° C., lowest concentration at which greater than 90% inhibition of bacterial growth was observed
Description: as §1

[5] = tested on: Pseudomonas aeruginosa (ATCC 27853); assay: Determination of the minimum inhibitory concentration (P. aeruginosa); type: cell-based
Description: as §1

## O=C(O)c1ccc(/C=C/c2cc(/C=C/c3ccc(C(=O)O)cc3)c(/C=C/c3ccc(C(=O)O)cc3)cc2/C=C/c2ccc(C(=O)O)cc2)cc1 [Formula E]
[1]; in the presence of bases such as NaOH
  solubility in the presence of bases: highly soluble
[1]; water
  solubility in water: minimally soluble
[2]; L929 cells, up to 1 mg/mL
  cytotoxicity: non-cytotoxic
[2]; at 1 mg/mL BCP3, 21 h, compared to TOPS control
  L929 cell viability: 85%
[2]; at all concentrations, 1.6×10^−4-1 mg/mL, 21 h
  L929 cell viability: above 70%
[3]
  MIC: 15.6 mg/L
[4]
  MIC: 15.6 mg/L
[5]; Pseudomonas aeruginosa, ATCC27853, P. aeruginosa, 24 h at 37° C., lowest concentration at which greater than 90% inhibition of bacterial growth was observed
  MIC: > 1000 mg/L
[5]; at 1 mg/mL BCP3, 24 h
  maximum inhibition of P. aeruginosa growth: 32%
